Measurements as given in PubChem BioAssay AID1963971 (Molecular Pharmacology Branch, DTP, NCI, 2024).
“And” between values parts separate entries of the source, which are not always exact repeats. Identical values can stand only once.

Tested on: 953936-095-R-J2-PDC spheroids with HUVEC/MSC, viability
Assay: Anticancer human tumor 953936-095-R-J2-PDC patient-derived cervical squamous cell carcinoma cell line growth inhibition [PI3K]
Conditions: for viability, T/C: stronger effect = lower value
Outline: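 Viability of mixed-cell spheroids was determined after exposure to pairwise combinations, one partner being inavolisib, alpelisib, duvelisib or copanlisib. Highest tested concentration matched clinical Cmax where known and 10 microM where not, descending in half-log steps.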

[1] = curve of first compound, second compound 0.0316 µM
[2] = curve of first compound, second compound 0.1 µM
[3] = curve of first compound, second compound 0.316 µM
[4] = curve of first compound, second compound 1 µM
[5] = curve of first compound, second compound 3.16 µM
[6] = curve of first compound, second compound 10 µM
[7] = second compound 0.0316 µM, first compound 0.0316 µM
[8] = second compound 0.0316 µM, first compound 0.1 µM
[9] = second compound 0.0316 µM, first compound 0.316 µM
[10] = second compound 0.0316 µM, first compound 1 µM
[11] = second compound 0.0316 µM, first compound 3.16 µM
[12] = second compound 0.0316 µM, first compound 10 µM
[13] = second compound 0.1 µM, first compound 0.0316 µM
[14] = second compound 0.1 µM, first compound 0.1 µM
[15] = second compound 0.1 µM, first compound 0.316 µM
[16] = second compound 0.1 µM, first compound 1 µM
[17] = second compound 0.1 µM, first compound 3.16 µM
[18] = second compound 0.1 µM, first compound 10 µM
[19] = second compound 0.316 µM, first compound 0.0316 µM
[20] = second compound 0.316 µM, first compound 0.1 µM
[21] = second compound 0.316 µM, first compound 0.316 µM
[22] = second compound 0.316 µM, first compound 1 µM
[23] = second compound 0.316 µM, first compound 3.16 µM
[24] = second compound 0.316 µM, first compound 10 µM
[25] = second compound 1 µM, first compound 0.0316 µM
[26] = second compound 1 µM, first compound 0.1 µM
[27] = second compound 1 µM, first compound 0.316 µM
[28] = second compound 1 µM, first compound 1 µM
[29] = second compound 1 µM, first compound 3.16 µM
[30] = second compound 1 µM, first compound 10 µM
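Note: spheroids exposed to compounds for seven days before read-out.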

Cn1cnc2c(F)c(Nc3ccc(Br)cc3Cl)c(C(=O)NOCCO)cc21 + Cc1nc(NC(=O)N2CCCC2C(N)=O)sc1-c1ccnc(C(C)(C)C(F)(F)F)c1
IC50 [1]: 748 nM
IC50 [2]: 308 nM
IC50 [3]: 36.8 nM
IC50 [4]: < 9.49 nM
IC50 [5]: < 9.49 nM
IC50 [6]: < 9.49 nM
viability, T/C (second compound 0.0316 µM, first compound 0.00949 µM): 85.7%
viability, T/C (second compound 0.0316 µM, first compound 0.03 µM): 87.1%
viability, T/C (second compound 0.0316 µM, first compound 0.0949 µM): 74.3%
viability, T/C (second compound 0.0316 µM, first compound 0.3 µM): 59.4%
viability, T/C (second compound 0.0316 µM, first compound 0.949 µM): 49.5%
viability, T/C (second compound 0.0316 µM, first compound 3 µM): 31.9%
viability, T/C (second compound 0.1 µM, first compound 0.00949 µM): 78.1%
viability, T/C (second compound 0.1 µM, first compound 0.03 µM): 70.1%
viability, T/C (second compound 0.1 µM, first compound 0.0949 µM): 52.7%
viability, T/C (second compound 0.1 µM, first compound 0.3 µM): 51.4%
viability, T/C (second compound 0.1 µM, first compound 0.949 µM): 47.4%
viability, T/C (second compound 0.1 µM, first compound 3 µM): 28.9%
viability, T/C (second compound 0.316 µM, first compound 0.00949 µM): 61.3%
viability, T/C (second compound 0.316 µM, first compound 0.03 µM): 50.8%
viability, T/C (second compound 0.316 µM, first compound 0.0949 µM): 43%
viability, T/C (second compound 0.316 µM, first compound 0.3 µM): 33.9%
viability, T/C (second compound 0.316 µM, first compound 0.949 µM): 26.1%
viability, T/C (second compound 0.316 µM, first compound 3 µM): 20.1%
viability, T/C (second compound 1 µM, first compound 0.00949 µM): 44%
viability, T/C (second compound 1 µM, first compound 0.03 µM): 35%
viability, T/C (second compound 1 µM, first compound 0.0949 µM): 24.9%
viability, T/C (second compound 1 µM, first compound 0.3 µM): 24.3%
viability, T/C (second compound 1 µM, first compound 0.949 µM): 12.1%
viability, T/C (second compound 1 µM, first compound 3 µM): 7.18%
viability, T/C (second compound 3.16 µM, first compound 0.00949 µM): 21.1%
viability, T/C (second compound 3.16 µM, first compound 0.03 µM): 15.3%
viability, T/C (second compound 3.16 µM, first compound 0.0949 µM): 11.3%
viability, T/C (second compound 3.16 µM, first compound 0.3 µM): 7.62%
viability, T/C (second compound 3.16 µM, first compound 0.949 µM): 5.36%
viability, T/C (second compound 3.16 µM, first compound 3 µM): 1.67%
viability, T/C (second compound 10 µM, first compound 0.00949 µM): 6.2%
viability, T/C (second compound 10 µM, first compound 0.03 µM): 5.44%
viability, T/C (second compound 10 µM, first compound 0.0949 µM): 4.18%
viability, T/C (second compound 10 µM, first compound 0.3 µM): 2.71%
viability, T/C (second compound 10 µM, first compound 0.949 µM): 1.25%
viability, T/C (second compound 10 µM, first compound 3 µM): 0.42%

Cn1nccc1Nc1nccc(-c2ccn(C(CO)c3ccc(Cl)c(F)c3)c(=O)c2)n1 (configuration not stated)
viability, T/C (compound 0.0316 µM): 90.7% [middle of 4 runs]
viability, T/C (compound 0.1 µM): 97.3% [middle of 4 runs]
viability, T/C (compound 0.316 µM): 91.1% [middle of 4 runs]
viability, T/C (compound 1 µM): 90% [middle of 4 runs]
viability, T/C (compound 3.16 µM): 82.7% [middle of 4 runs]
viability, T/C (compound 10 µM): 77.9% [middle of 4 runs]
IC50 (curve of compound): > 10000 nM

CC(=O)c1c(C)c2cnc(Nc3ccc(N4CCNCC4)cn3)nc2n(C2CCCC2)c1=O
viability, T/C (compound 0.000316 µM): 95.2% [middle of 4 runs]
viability, T/C (compound 0.001 µM): 96.6% [middle of 4 runs]
viability, T/C (compound 0.00316 µM): 103% [middle of 4 runs]
viability, T/C (compound 0.01 µM): 97.6% [middle of 4 runs]
viability, T/C (compound 0.0316 µM): 96.6% [middle of 4 runs]
viability, T/C (compound 0.1 µM): 95.7% [middle of 4 runs]
IC50 (curve of compound): > 100 nM

Cn1ncnc1[C@H]1c2n[nH]c(=O)c3cc(F)cc(c23)N[C@@H]1c1ccc(F)cc1
viability, T/C (compound 0.000316 µM): 97.2% [middle of 4 runs]
viability, T/C (compound 0.001 µM): 101% [middle of 4 runs]
viability, T/C (compound 0.00316 µM): 103% [middle of 4 runs]
viability, T/C (compound 0.01 µM): 115% and 101% (2×) and 97.3%
viability, T/C (compound 0.0316 µM): 101% (2×) and 96.9% and 92.6%
viability, T/C (compound 0.1 µM): 94.8% [middle of 4 runs]
IC50 (curve of compound): > 100 nM

CCCS(=O)(=O)Nc1ccc(F)c(C(=O)c2c[nH]c3ncc(-c4ccc(Cl)cc4)cc23)c1F + Cc1nc(NC(=O)N2CCCC2C(N)=O)sc1-c1ccnc(C(C)(C)C(F)(F)F)c1
IC50 [1]: 5030 nM
IC50 [2]: 4880 nM
IC50 [3]: 4280 nM
IC50 [4]: < 31.6 nM
IC50 [5]: < 31.6 nM
IC50 [6]: < 31.6 nM
viability, T/C [7]: 90.7%
viability, T/C [8]: 95.1%
viability, T/C [9]: 95.8%
viability, T/C [10]: 99.2%
viability, T/C [11]: 83.2%
viability, T/C [12]: 0.75%
viability, T/C [13]: 82.6%
viability, T/C [14]: 88.3%
viability, T/C [15]: 86.1%
viability, T/C [16]: 92.9%
viability, T/C [17]: 80%
viability, T/C [18]: 0.68%
viability, T/C [19]: 64.6%
viability, T/C [20]: 65.1%
viability, T/C [21]: 66.9%
viability, T/C [22]: 73.8%
viability, T/C [23]: 68.2%
viability, T/C [24]: 0.57%
viability, T/C [25]: 46.6%
viability, T/C [26]: 45.9%
viability, T/C [27]: 47%
viability, T/C [28]: 50.2%
viability, T/C [29]: 37.3%
viability, T/C [30]: 0.59%
viability, T/C (second compound 3.16 µM, first compound 0.0316 µM): 26.6%
viability, T/C (second compound 3.16 µM, first compound 0.1 µM): 26.2%
viability, T/C (second compound 3.16 µM, first compound 0.316 µM): 27.5%
viability, T/C (second compound 3.16 µM, first compound 1 µM): 25.5%
viability, T/C (second compound 3.16 µM, first compound 3.16 µM): 20.2%
viability, T/C (second compound 3.16 µM, first compound 10 µM): 1.4%
viability, T/C (second compound 10 µM, first compound 0.0316 µM): 11.7%
viability, T/C (second compound 10 µM, first compound 0.1 µM): 12.8%
viability, T/C (second compound 10 µM, first compound 0.316 µM): 13.7%
viability, T/C (second compound 10 µM, first compound 1 µM): 14.2%
viability, T/C (second compound 10 µM, first compound 3.16 µM): 9.62%
viability, T/C (second compound 10 µM, first compound 10 µM): 0.42%

CC(C)NCC(C(=O)N1CCN(c2ncnc3c2C(C)CC3O)CC1)c1ccc(Cl)cc1 (configuration not stated) + COc1c(OCCCN2CCOCC2)ccc2c3n(c(=NC(=O)c4cnc(N)nc4)nc12)CCN3
IC50 (curve of first compound, second compound 0.00316 µM): 793 nM
IC50 (curve of first compound, second compound 0.01 µM): 537 nM
IC50 [1]: < 31.6 nM
IC50 [2]: < 31.6 nM
IC50 [3]: < 31.6 nM
IC50 [4]: < 31.6 nM
viability, T/C (second compound 0.00316 µM, first compound 0.0316 µM): 80.9%
viability, T/C (second compound 0.00316 µM, first compound 0.1 µM): 85.2%
viability, T/C (second compound 0.00316 µM, first compound 0.316 µM): 66.5%
viability, T/C (second compound 0.00316 µM, first compound 1 µM): 46.5%
viability, T/C (second compound 0.00316 µM, first compound 3.16 µM): 21%
viability, T/C (second compound 0.00316 µM, first compound 10 µM): 11.6%
viability, T/C (second compound 0.01 µM, first compound 0.0316 µM): 68.9%
viability, T/C (second compound 0.01 µM, first compound 0.1 µM): 69.2%
viability, T/C (second compound 0.01 µM, first compound 0.316 µM): 62.2%
viability, T/C (second compound 0.01 µM, first compound 1 µM): 35.6%
viability, T/C (second compound 0.01 µM, first compound 3.16 µM): 16.6%
viability, T/C (second compound 0.01 µM, first compound 10 µM): 9.89%
viability, T/C [7]: 44.4%
viability, T/C [8]: 38.5%
viability, T/C [9]: 35.7%
viability, T/C [10]: 24%
viability, T/C [11]: 12.2%
viability, T/C [12]: 6.65%
viability, T/C [13]: 18.9%
viability, T/C [14]: 16.4%
viability, T/C [15]: 16.3%
viability, T/C [16]: 12.4%
viability, T/C [17]: 6.76%
viability, T/C [18]: 3.98%
viability, T/C [19]: 6.59%
viability, T/C [20]: 6.54%
viability, T/C [21]: 5.22%
viability, T/C [22]: 4.04%
viability, T/C [23]: 2.93%
viability, T/C [24]: 1.71%
viability, T/C [25]: 1.44%
viability, T/C [26]: 2.11%
viability, T/C [27]: 1.2%
viability, T/C [28]: 1.24%
viability, T/C [29]: 0.83%
viability, T/C [30]: 0.81%
